US9439438B2 (priority 2011, dated 2016)

Tested on: mice
Conditions: mouse, in vivo

[Cl][Mn][Cl] [Mn, MnCl2]
resistance to a lethal STx challenge: completely resistant
